From the supplement of paper PMC10307832

Legend:
Assay in all cases: relative viability (nuclei count vs DMSO), 5 days (fraction); higher = more cells survive
[1] = compound: CCN1C(=O)C2=CC(=C(N=C2N(C1=O)C3CC3)N)C(=O)N + O=C(CCCCCCC(=O)Nc1ccccc1)NO [Vorinostat] (partner 1 µM)
Summary of the method: (§1)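 Lung cancer cell lines were seeded in 1536-well plates and dosed by pin tool the next day, with either a single drug or a fixed anchor-drug dose combined with five library-drug doses (not always all listed) spaced in √10 steps. Five days later, one step fixed the cells and stained their nuclei (final 0.05% Triton X-100, 1% formaldehyde, 1 ug/ml Hoechst), and nuclei were counted on 4× images. Relative viability is the nuclei count in treated wells divided by the count in vehicle wells, and each value is the median of duplicate plates.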

[2] = compound: CCN1C(=O)C2=CC(=C(N=C2N(C1=O)C3CC3)N)C(=O)N + CC(C)C[C@H](NC(=O)[C@H](Cc1ccccc1)NC(=O)c1cnccn1)B(O)O [Bortezomib] (partner 0.002 µM)
Summary of the method: as §1

[3] = compound: CCN1C(=O)C2=CC(=C(N=C2N(C1=O)C3CC3)N)C(=O)N + CCNC(=O)c1noc(-c2cc(C(C)C)c(O)cc2O)c1-c1ccc(CN2CCOCC2)cc1 [Luminespib] (partner 0.01 µM)
Summary of the method: as §1

[4] = compound: CCN1C(=O)C2=CC(=C(N=C2N(C1=O)C3CC3)N)C(=O)N + COc1cc2c(Oc3ccc(NC(=O)C4(C(=O)Nc5ccc(F)cc5)CC4)cc3F)ccnc2cc1OCCCN1CCOCC1 [Foretinib] (partner 0.25 µM)
Summary of the method: as §1

[5] = compound: CCN1C(=O)C2=CC(=C(N=C2N(C1=O)C3CC3)N)C(=O)N + Cc1cc(Nc2cc(N3CCN(C)CC3)nc(Sc3ccc(NC(=O)C4CC4)cc3)n2)n[nH]1 [Tozasertib] (partner 0.1 µM)
Summary of the method: as §1

| Cell Line | relative viability ([1]; first compound 0.253 µM) | relative viability ([1]; first compound 0.8 µM) | relative viability ([1]; first compound 2.53 µM) | relative viability ([1]; first compound 8 µM) | relative viability ([2]; first compound 0.253 µM) | relative viability ([2]; first compound 0.8 µM) | relative viability ([2]; first compound 2.53 µM) | relative viability ([2]; first compound 8 µM) | relative viability ([3]; first compound 0.253 µM) | relative viability ([3]; first compound 0.8 µM) | relative viability ([3]; first compound 2.53 µM) | relative viability ([3]; first compound 8 µM) | relative viability ([4]; first compound 0.253 µM) | relative viability ([4]; first compound 0.8 µM) | relative viability ([4]; first compound 2.53 µM) | relative viability ([4]; first compound 8 µM) | relative viability ([5]; first compound 0.253 µM) | relative viability ([5]; first compound 0.8 µM) | relative viability ([5]; first compound 2.53 µM) | relative viability ([5]; first compound 8 µM) |
| --- | --- | --- | --- | --- | --- | --- | --- | --- | --- | --- | --- | --- | --- | --- | --- | --- | --- | --- | --- | --- |
| PC-14 | 0.621 | 0.743 | 0.679 | 0.779 | 0.966 | 0.932 | 0.807 | 0.919 | 0.144 | 0.159 | 0.158 | 0.119 | 0.914 | 0.961 | 0.954 | 0.969 | 0.597 | 0.604 | 0.525 | 0.64 |
| RERF-LC-KJ | 0.678 | 0.737 | 0.807 | 0.838 | 1.01 | 1.03 | 1.02 | 1.01 | 1.27 | 1.17 | 1.22 | 1.14 | 0.868 | 0.875 | 0.898 | 0.884 | 0.498 | 0.499 | 0.479 | 0.441 |
| SK-LU-1 | 0.699 | 0.755 | 0.773 | 0.876 | – | 1.36 | 1.29 | 1.29 | 0.177 | 0.201 | 0.194 | 0.215 | 0.925 | 0.799 | 0.839 | 1 | 0.349 | 0.305 | 0.324 | 0.306 |
| SW 1573 | 0.824 | 0.848 | 0.624 | 0.682 | 0.994 | 1.14 | 0.935 | 1.04 | 0.191 | 0.377 | 0.303 | 0.427 | 0.978 | 0.762 | 0.832 | 0.933 | 0.172 | 0.174 | 0.142 | 0.219 |
| UMC-11 | 0.415 | 0.34 | 0.373 | 0.408 | 0.714 | 0.649 | 0.674 | 0.836 | 0.914 | 1.02 | 1.08 | 1.17 | 1.02 | 1.05 | 1.1 | 1.13 | 0.2 | 0.213 | 0.188 | 0.206 |
